Reference: ChEMBL document CHEMBL1795229, “Vasorelaxant effects of macrocyclic bis(bibenzyls) from liverworts” (Bioorg Med Chem, 2011)
Active and inactive are the calls of the source. No cut-off for these calls is given here.

What was measured:
[1] = tested on: Aorta; assay: Vasorelaxant activity in Wistar rat endothelium-intact aortic rings assessed as inhibition of phenylephrine-induced contractions at 30 uM after 10 to 30 mins; type: functional, tissue-based
[2] = tested on: Aorta; assay: Vasorelaxant activity in Wistar rat endothelium-intact aortic rings assessed as inhibition of phenylephrine-induced contractions after 10 to 30 mins; type: functional, tissue-based
[3] = tested on: Aorta; assay: Vasorelaxant activity in Wistar rat endothelium-denuded aortic rings assessed as inhibition of phenylephrine-induced contractions at 10 to 100 uM; type: functional, tissue-based; settings: TDE = time-dependent effect
[4] = tested on: Aorta; assay: Vasorelaxant activity in Wistar rat endothelium-intact aortic rings assessed as inhibition of phenylephrine-induced contractions after 10 to 60 mins; type: functional, tissue-based
[5] = tested on: Aorta; assay: Vasorelaxant activity in Wistar rat endothelium-denuded aortic rings assessed as inhibition of phenylephrine-induced contractions in calcium-free medium at 30 uM pretreated with nicardipine; type: functional, tissue-based
[6] = tested on: Aorta; assay: Vasorelaxant activity in Wistar rat endothelium-denuded aortic rings assessed as inhibition of phenylephrine-induced contractions at 10 to 100 uM after 10 to 60 mins; type: functional
[7] = tested on: Aorta; assay: Vasorelaxant activity in Wistar rat endothelium-denuded aortic rings assessed as inhibition of phenylephrine-induced contractions presence of 1 mM of potassium channel inhibitor TEA; type: functional, tissue-based
[8] = tested on: Aorta; assay: Vasorelaxant activity in Wistar rat endothelium-intact aortic rings assessed as inhibition of phenylephrine-induced contractions at 10 to 100 uM; type: functional, tissue-based; settings: TDE = time-dependent effect
[9] = tested on: Aorta; assay: Vasorelaxant activity in Wistar rat endothelium-intact aortic rings assessed as inhibition of phenylephrine-induced contractions at 10 to 100 uM after 10 to 60 mins; type: functional
[10] = tested on: Aorta; assay: Vasorelaxant activity in Wistar rat endothelium-denuded aortic rings assessed as inhibition of calcium chloride-induced contractions in calcium-free potassium-rich medium at 30 uM; type: functional, tissue-based
[11] = tested on: Aorta; assay: Vasorelaxant activity in Wistar rat aortic rings assessed as inhibition of phenylephrine-induced contractions at 10 to 100 uM after 10 to 60 mins in presence of 100 uM of NO synthase inhibitor L-NMMA; type: functional, tissue-based

Compound	inhibition [1]	inhibition [4]	inhibition [8]	inhibition (INH) [9] [%]	also measured
COC1Cc2cccc(c2)Oc2c(O)cccc2CCc2ccc(cc2)Oc2cc1cc(O)c2O (configuration not stated)	Active	–	–	–	–
COc1cc(CCc2cccc(Oc3c(O)cccc3CCc3ccc(O)cc3)c2)cc(O)c1O	Active	–	–	–	–
COc1cc2cc(c1OC)Oc1ccc(cc1)CCc1ccc(OC)c(OC)c1Oc1cccc(c1)CC2	Active	–	–	–	–
COc1ccc2c(c1)CCc1ccc(OC)c(c1)-c1cc(ccc1OC)CCc1ccc-2c(OC)c1	Active	–	–	–	–
COc1cccc(CCc2ccc(O)c(Oc3ccc(CCc4cccc(O)c4)cc3)c2)c1	Active	–	–	–	–
COc1cccc2c1Oc1cccc(c1)CCc1cc(OC)c(OC)c(c1)Oc1ccc(cc1)CC2	Active	–	–	–	–
Oc1cc2cc(c1O)Oc1ccc(cc1)CCc1ccc(O)c(O)c1Oc1cccc(c1)CC2	Active	–	–	–	–
Oc1cc2cc(c1O)Oc1ccc(cc1)CCc1cccc(O)c1Oc1cccc(c1)CC2	Active	–	–	–	–
Oc1ccc(CCc2cccc(O)c2O)cc1Oc1ccc(CCc2cccc(O)c2O)cc1	Active	–	–	–	–
Oc1ccc2c(c1)/C=C/c1ccc(O)c(c1)Oc1ccc(cc1)CCc1cccc(c1)O2	Active	–	–	–	–
Oc1ccc2c(c1)CCc1ccc(O)c(c1)-c1cc(ccc1O)/C=C\c1cccc(c1)O2	Active	–	–	–	–
Oc1ccc2c(c1)CCc1ccc(cc1)Oc1cc(cc(-c3cc4cc(c3O)Oc3ccc(cc3)CCc3cc(O)ccc3-c3ccc(cc3O)CC4)c1O)CCc1ccc-2c(O)c1	Active	–	–	–	–
Oc1ccc2cc1Oc1ccc(cc1)CCc1cccc(c1)Oc1c(O)cccc1CC2	Active	–	–	–	–
CC(=O)OCC[N+](C)(C)C [ACETYLCHOLINE]	–	–	–	–	IC50 [2]: 1 µM
Oc1ccc2cc1-c1cc(ccc1O)CCc1c(ccc(O)c1O)Oc1cccc(c1)/C=C\2 [ISOPLAGIOCHIN B]	Active	Dose-dependent effect	tde	>60	inhibition [3]: tde; inhibition [5]: Active; inhibition (INH) [6]: >80%; inhibition [7]: inactive; inhibition [10]: inactive
Oc1ccc2c(c1)CCc1ccc(O)c(c1)-c1cc(ccc1O)CCc1ccc-2c(O)c1 [ISOPLAGIOCHIN D]	Active	Dose-dependent effect	tde	>60	inhibition [3]: tde; inhibition [5]: Active; inhibition (INH) [6]: >80%; inhibition [7]: Active; inhibition [10]: Active
Oc1cccc(CCc2ccc(Oc3cc(CCc4cccc(O)c4)cc(O)c3O)cc2)c1 [PERROTETTIN F]	Active	Dose-dependent effect	tde	>60	inhibition [3]: tde; inhibition [5]: Active; inhibition (INH) [6]: >80%; inhibition [7]: Active; inhibition [10]: Active
COc1cc2c(cc1O)-c1ccc(O)cc1CCc1cc(O)c(O)c(c1)Oc1ccc(cc1)CC2 [PLAGIOCHIN A]	Active	Dose-dependent effect	tde	>60	inhibition [6]: inactive; inhibition [11]: inactive
Oc1ccc2c(c1)CCc1ccc(cc1)Oc1cc(ccc1O)CCc1ccc-2c(O)c1 [RICCARDI C]	Active	Dose-dependent effect	tde	>60	inhibition [6]: inactive
COc1ccc2cc1Oc1ccc(cc1)CCc1cc(O)ccc1-c1ccc(cc1O)CC2 [RICCARDI F]	Active	Dose-dependent effect	tde	>60	inhibition [6]: inactive
COc1ccc2c(c1)CCc1ccc(cc1)Oc1cc(ccc1O)CCc1ccc-2c(O)c1 [RICCARDIN A]	Active	Dose-dependent effect	tde	>60	inhibition [6]: inactive
